{"source": "patent US20190031613A1", "about": "“COMPOUNDS AND METHODS FOR THEIR USE IN THE TREATMENT OF MALARIA” (University of South Florida, priority 2016, published 2019)", "key": {"[1]": {"test_system": "multidrug resistant malarial strain TM90-C2B (mefloquine, chloroquine, atovaquone, pyrimethamine resistant)", "experiment": "in vitro antimalarial activity against strain TM90-C2B", "format": "cell-based", "settings": "internal controls of the in vitro assay", "from_the_text": "(§1) FIG. 2a depicts the synthesis of 4(1H)-quinolones 1 via Conrad-Limpach reaction^24 and conversion to first set of prodrugs (2, 3 and 4) via O-acylation.\n(§2) FIG. 4a depicts the synthesis of 4(1H)-quinolones 1 into amino AOCOM ether prodrugs 6 via O-alkylation and subsequent deprotection."}, "[2]": {"test_system": "multidrug resistant malarial strain W2 (pyrimethamine and chloroquine resistant)", "experiment": "in vitro antimalarial activity against strain W2", "format": "cell-based", "settings": "strains W2 and TM90-C2B, strain not specified", "from_the_text": "as §1, §2"}, "physchem": {"experiment": "physchem", "settings": "pH 7.4, aqueous buffer"}, "[3]": {"experiment": "aqueous solubility at pH 7.4", "settings": "pH 7.4, aqueous buffer"}, "P. berghei-GFP parasites": {"test_system": "P. berghei-GFP parasites", "experiment": "in vivo efficacy, modified Thompson test", "parameters": "species or system mice", "settings": "three daily doses days 3-5 PI, 0.5% aqueous HEC", "description": "Prodrug 6d was orally tested for in vivo efficacy at four doses (0.3 mg/kg, 1.0 mg/kg, 3.0 mg/kg, and 10 mg/kg) in 0.5% aqueous HEC solution."}, "[4]": {"experiment": "aqueous solubility at pH 2.5, UV-based assay", "format": "physicochemical", "settings": "aqueous solution at pH 2.5, pH 2.5, aqueous buffer; read-out: aqueous solubility at acidic pH", "from_the_text": "Analogous to known AOCOM ether prodrugs, AOCOM iodides were used to prepare the desired prodrugs.^39 Thus, the synthesis route to the prodrugs commences with conversion of Boc-protected amino alcohols into corresponding Boc-protected aminoalkyloxycarbonyloxymethyl (amino AOCOM) iodides (FIG. 4a). Reaction of 4-quinolinols 1c′ and with the 1d′ with the Boc-protected amino AOCOM iodides, in presence of caesium carbonate, and subsequent deprotection leads to water-soluble HCl salts 6a-d (FIG. 4b). […] The assessment of the aqueous solubility at pH 7.4 was challenging due to the limited stability of the prodrug moiety at neutral pH and was not performed. […] In addition, solid material was rapidly dissolved in 0.5% aqueous HEC solution and visually inspected after 60 seconds for material dissolution."}, "[5]": {"settings": "aqueous medium at pH 7.4 (buffer not named)"}}}
{"smiles": "C[C@H]1[C@@H](O)O[C@@H]2O[C@@]3(C)CC[C@H]4[C@H](C)CC[C@@H]1[C@@]24OO3", "note": "[DHA, dihydroartemisinin, reference compound]", "values": [{"measurement": "EC50", "setting": "[1]", "value": 0.005, "unit": "µM"}]}
{"smiles": "CCOC(=O)Oc1c(-c2ccccc2C)c(C)nc2cc(OC)c(Cl)cc12", "note": "[compound 4, 6-Chloro-7-methoxy-2-methyl-3-(o-tolyl)-4-((ethoxycarbonyl)oxy)quinoline]", "values": [{"measurement": "in vitro antimalarial activity / EC50 values relative to 1c", "setting": "[2]", "value": "comparable to the EC50 values of 1c"}, {"measurement": "solubility", "setting": "physchem", "value": 1.2, "unit": "µM"}]}
{"smiles": "COc1cc2nc(C)c(-c3ccccc3C)c(OC(=O)N3CCCC3)c2cc1Cl", "note": "[2b, 6-Chloro-7-methoxy-2-methyl-3-(o-tolyl)-4-((pyrrolidine-1-carbonyl)oxy)quinoline]", "values": [{"measurement": "EC50 values fold higher than reference 4(1H)-quinolone 1c", "setting": "[2]", "value": 300, "unit": "fold"}, {"measurement": "in vitro antimalarial activity / EC50 values relative to 1c", "setting": "[2]", "value": "lacked in antimalarial activity"}, {"measurement": "solubility", "setting": "[3]; [5]", "value": 2.9, "unit": "µM"}]}
{"smiles": "O=C1C(O)=C([C@H]2CC[C@H](c3ccc(Cl)cc3)CC2)C(=O)c2ccccc21", "note": "[ATO, atovaquone, reference compound]", "values": [{"measurement": "EC50", "setting": "[1]", "value": 18.4, "unit": "µM"}]}
{"smiles": "CCN(CC)C(=O)Oc1c(-c2ccccc2C)c(C)nc2cc(OC)c(Cl)cc12", "note": "[2a]", "values": [{"measurement": "EC50 values fold higher than reference 4(1H)-quinolone 1c", "setting": "[2]", "value": 300, "unit": "fold"}, {"measurement": "in vitro antimalarial activity / EC50 values relative to 1c", "setting": "[2]", "value": "lacked in antimalarial activity"}, {"measurement": "solubility", "setting": "[3]", "value": "< 1", "unit": "µM"}]}
{"smiles": "CNCCCOC(=O)OCOc1c(-c2ccccc2C)c(C)nc2cc(OC)c(Cl)cc12.Cl", "note": "[6b, 6-Chloro-7-methoxy-2-methyl-3-(o-tolyl)-4-(((3-(methylammonio)propyloxycarbonyl)oxy)methoxy)quinoline, chloride salt]", "values": [{"measurement": "Suppression [%] day 6 PI", "setting": "P. berghei-GFP parasites; 10 mg/kg PO", "value": 52, "unit": "%"}, {"measurement": "Day of death (avg)", "setting": "P. berghei-GFP parasites; 10 mg/kg PO, untreated 13", "value": 13}, {"measurement": "Day of death (avg)", "setting": "P. berghei-GFP parasites; 50 mg/kg PO", "value": 13}, {"measurement": "Suppression [%] day 6 PI", "setting": "P. berghei-GFP parasites; 50 mg/kg PO", "value": 72, "unit": "%"}, {"measurement": "solubility", "setting": "[4]", "value": "> 100", "unit": "µM"}]}
{"smiles": "COc1cc2[nH]c(C)c(-c3ccccc3C)c(=O)c2cc1Cl", "note": "[1c, 6-chloro-7-methoxy-2-methyl-3-(o-tolyl)-4(1H)-quinolone, reference compound]", "values": [{"measurement": "Suppression [%] day 6 PI", "setting": "P. berghei-GFP parasites; 10 mg/kg PO", "value": 29, "unit": "%"}, {"measurement": "Day of death (avg)", "setting": "P. berghei-GFP parasites; 10 mg/kg PO, untreated 13", "value": 13}, {"measurement": "Day of death (avg)", "setting": "P. berghei-GFP parasites; 50 mg/kg PO", "value": 13}, {"measurement": "Suppression [%] day 6 PI", "setting": "P. berghei-GFP parasites; 50 mg/kg PO", "value": 28, "unit": "%"}, {"measurement": "solubility", "setting": "[3]; [5]", "value": 8.7, "unit": "µM"}]}
